Assay results published in US7482032B2, “Carotenoid preparation” (I.B.R. Israeli Biotechnology Research, Ltd., priority 1998, dated 2009).

Assays:
[1] = test system: DNA repair synthesis activity; test: Genotoxic effect: induction of DNA repair synthesis activity (ratio R); type: biochemical; conditions: R≦2 no toxic effect
Experimental: The genotoxicity is measured as the induction of DNA repair synthesis activity and is expressed by the ratio (R): while R≦2 indicate no toxic effect

[2] = UV absorbance spectra (spectrophotometric analysis); type: physicochemical; conditions: extract from Dunaliella sp.
Experimental: Absorption spectra of the phytoene and phytofluene extract was determined using Hewlett Packard 8452A Diode Array Spectrophotometer.
As expected, the main absorbance peak for β-carotene was at 450 nm. β-Carotene was reduced due to the synthesis inhibition while phytoene and phytofluene increased.

[3] = Stability under visible light (filtered sunlight, aerobic); type: physicochemical
Experimental: Stability of phytoene and phytofluene under visible light was measured under sunlight (full sun summer day in Rehovot, Israel, at noon) filtered through “hot mirror” (Andover Corporation, Salem, N.H., transmittance 400-650 nm) filter. Samples were dissolved in ethanol, exposed to light for 30-150 min and then extracted in hexane after basic hydrolysis (as in extraction method above). Phytoene, phytofluene and beta-carotene amounts were measured spectrophotometrically, and percentage lefts were calculated as in section 5 above.
Stability of phytoene and phytofluene was compared to that of beta-carotene stability (as explained in materials and methods) under visible light. The absorbance of the preparation is determined in 220-600 nm wavelength and the amount of each of the above carotenoids in each sample is calculated to determine the percent of the carotenoids measured after irradation of the extract compared to measurements prior to irradiant (see example 2 above).

[4] = Stability of phytoene and phytofluene under UV irradiation (aerobic); type: physicochemical
Experimental: 6. Stability of Phytoene and Phytofluene Under Aerobic Conditions in UV Lights and Various Incubation Temperatures
(§1) Stability of the carotenoids in the various temperatures was determined by long-term incubation of phytoene and phytofluene in several types of oils and solvents at 4° C., 23° C., 30° C. and 60° C. The amount of phytoene and phytofluene left was determined spectrophotometrically. The percent of phytoene and phytofluene left was calculated as follows:
[formula] Stability under UV lights (254 nm, 365 nm, 254+365 nm), for 30 mins. at 300/310 μw/cm^2 was determined. 7. Stability of Phytoene and Phytofluene Under Aerobic Conditions in Visible Light
The stability of the phytoene and phytofluene extracts obtained as explained in Example 1 above was determined by spectrophotometric analysis. Phytoene and phytofluene were dissolved in hexane or oil. The absorbance of the preparation is determined in 220-600 nm and the amount of each of the above carotenoids in each sample is calculated to determine the percent of the carotenoids measured after irradiation of the extract divided by the amount of the same carotenoid which was measured in the extract before exposing it to irradiation (see Materials and Methods 5 above). The stability of the phytoene and phytofluene was measured by the exposure of the extract both to UVA light (365 nm) and UVB light (254 nm) irradiation as well as to a combination of UVA and UVB irradiation.

[5] = Stability of phytoene and phytofluene at various incubation temperatures in oils and solvents; type: physicochemical; conditions: 4° C., 23° C., 30° C. and 60° C., hexane or oils, four months
Experimental: as §1, with “follows: […]” for “follows:”
The stability of phytoene and phytofluene under different temperature conditions (4° C., 23° C., 30° C. and 60° C.) in hexane or in other various commercially used oils was also measured.
The measurements were carried out over a period of four months.

[6] = 254 nm + 365 nm, 30 minutes exposure, in hexane
[7] = 254 nm + 365 nm, 30 minutes exposure, in oil
[8] = 254 nm, 30 minutes exposure, in hexane
[9] = 254 nm, 30 minutes exposure, in oil
[10] = 365 nm, 30 minutes exposure, in hexane
[11] = 365 nm, 30 minutes exposure, in oil
[12] = Darkness, 30 minutes, in hexane

Row | SMILES | Genotoxicity (Ratio) ([1]; concentration 2 mM) | Genotoxicity (Ratio) ([1]; concentration 10 mM) | main absorbance peak [2] [nm] | % left ([3]; time of exposure 0 min) [%] | % left ([3]; time of exposure 30 min) [%] | % left ([3]; time of exposure 90 min) [%] | % left ([3]; time of exposure 120 min) [%] | % left ([3]; time of exposure 150 min) [%] | PH and PF (% left) [4, 6] [%] | PH and PF (% left) [4, 7] [%] | PH and PF (% left) [4, 8] [%] | PH and PF (% left) [4, 9] [%] | PH and PF (% left) [4, 10] [%] | PH and PF (% left) [4, 11] [%] | PH and PF (% left) [4, 12] [%] | PH and PF (% left) ([4]; Darkness, 30 minutes, in oil) [%] | Stability under different temperature conditions [5]
1 | COS(C)(=O)=O [MMS] | 2.44 | 6.26 |  |  |  |  |  |  |  |  |  |  |  |  |  |  | 
2 | CC1=C(/C=C/C(C)=C/C=C/C(C)=C/C=C/C=C(C)/C=C/C=C(C)/C=C/C2=C(C)CCCC2(C)C)C(C)(C)CCC1 [Beta-carotene, reference compound] |  |  | 450 | 100 | 25.00 | 11.36 | 9.47 | 5.68 |  |  |  |  |  |  |  |  | 
3 | CC(C)=CCC/C(C)=C/CC/C(C)=C/C=C/C(C)=C/C=C/C=C(\C)CC/C=C(\C)CC/C=C(\C)CCC=C(C)C [Phytofluene, 15Z, 7,8, 11, 12, 7′, 8′-hexahydro-γ,γ-carotene] |  |  | 348 | 100 | 66.13 | 50.42 | 41.33 | 33.06 | 99.0 | 98 | 92.6 | 90 | 101.5 | 88 | 100 | 100 | stable in the entire measured temperature range
4 | CC(C)=CCC/C(C)=C/CC/C(C)=C/CC/C(C)=C/C=C/C=C(\C)CC/C=C(\C)CC/C=C(\C)CCC=C(C)C [Phytoene, 7,8, 11, 12, 7′, 8′, 11′, 12′-octahydro-γ,γ-carotene] |  |  | 286 | 100 | 54.46 | 20.33 | 15.70 | 13.64 | 92.4 | 101 | 92.2 | 100 | 98.7 | 100 | 100 | 100 | stable in the entire measured temperature range
